Laboratory results as given in ChEMBL document CHEMBL5528054, “Novel Cocrystal Structures of Peptide Antagonists Bound to the Human Melanocortin Receptor 4 Unveil Unexplored Grounds for Structure-Based Drug Design” (J Med Chem, 2024).
The source made the active and inactive calls. The rule behind the calls is not given here.

Key:
[1] = molecular target: T1, Melanocyte-stimulating hormone receptor (Homo sapiens, UniProt Q01726); test: Partial agonist activity at C-terminal HA-tagged human MC1-R stably expressed in HEK293 cells co-expressing GScAMP22P cAMP reporter assessed as inhibition of alpha-MSH induced cAMP production by cell based luminescence assay relative to control; assay type: functional; parameters: concentration or dose not given beside the values; details: filed as partial agonist, concentration not given here
Target sequence in this assay (Q01726 whole entry, looked up): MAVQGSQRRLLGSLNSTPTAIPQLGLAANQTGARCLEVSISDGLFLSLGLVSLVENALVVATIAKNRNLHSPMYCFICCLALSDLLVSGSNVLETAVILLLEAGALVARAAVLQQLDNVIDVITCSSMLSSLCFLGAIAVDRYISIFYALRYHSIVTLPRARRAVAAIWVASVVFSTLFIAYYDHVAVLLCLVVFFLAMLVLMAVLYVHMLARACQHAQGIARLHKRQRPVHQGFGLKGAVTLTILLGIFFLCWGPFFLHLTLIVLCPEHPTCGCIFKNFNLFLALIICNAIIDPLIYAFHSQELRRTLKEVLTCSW

[2] = test system: HEK293; test: (§1) Selectivity ratio of IC50 for C-terminal HA-tagged human MC4-R stably expressed in HEK293 cells co-expressing GScAMP22P cAMP reporter assessed as inhibition of alpha-MSH induced cAMP production to IC50 for C-terminal HA-tagged human MC1-R stably expressed in HEK293 cells co-expressing GScAMP22P cAMP reporter assessed as inhibition of alpha-MSH induced cAMP production; assay type: cell-based
[3] = test system: HEK293; test: as §1, with “MC3-R” for “MC1-R”; assay type: cell-based
[4] = test system: Mus musculus; test: In vivo activation of Kir7.1 channel in cannulated C57BL/6J mouse assessed as increase in food intake at 500 pM,ICV administration and measured after 6 hrs; assay type: functional
[5] = test system: Mus musculus; test: In vivo activation of Kir7.1 channel in cannulated C57BL/6J mouse assessed as increase in food intake at 500 pM,ICV administration for 7 days; assay type: functional; details: time 7.0 day
[6] = test system: Melanocortin receptor 4 (Homo sapiens), P32245 [E100A]; test: Agonist activity at N-terminal fused BRIL-Flag tagged human MC4-R E100A mutant transiently transfected in HEK293 cells assessed as fold change in cAMP accumulation by ELISA; assay type: cell-based; details: filed as agonist
Melanocortin receptor 4 (Homo sapiens), P32245 [E100A], sequence (P32245 whole entry E100A, the tested form may be a part): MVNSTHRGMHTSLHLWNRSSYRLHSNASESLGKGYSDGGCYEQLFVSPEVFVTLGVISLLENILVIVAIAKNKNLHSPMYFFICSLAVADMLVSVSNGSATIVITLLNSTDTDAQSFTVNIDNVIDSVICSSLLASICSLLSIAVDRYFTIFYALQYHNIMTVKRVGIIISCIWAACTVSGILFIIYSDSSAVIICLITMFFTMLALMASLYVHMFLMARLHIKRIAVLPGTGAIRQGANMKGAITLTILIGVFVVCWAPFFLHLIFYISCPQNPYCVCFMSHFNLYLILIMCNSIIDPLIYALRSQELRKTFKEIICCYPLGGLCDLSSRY

[7] = test system: Melanocortin receptor 4 (Homo sapiens), P32245 [D122A]; test: Agonist activity at N-terminal fused BRIL-Flag tagged human MC4-R D122A mutant transiently transfected in HEK293 cells assessed as fold change in cAMP accumulation by ELISA; assay type: functional, cell-based; details: filed as agonist
Melanocortin receptor 4 (Homo sapiens), P32245 [D122A], sequence (P32245 whole entry D122A, the tested form may be a part): as the sequence (P32245 whole entry E100A, the tested form may be a part) above, with A100E, D122A counted along it

[8] = test system: Melanocortin receptor 4 (Homo sapiens), P32245 [D126A]; test: Agonist activity at N-terminal fused BRIL-Flag tagged human MC4-R D126A mutant transiently transfected in HEK293 cells assessed as fold change in cAMP accumulation by ELISA; assay type: cell-based; details: filed as agonist
Melanocortin receptor 4 (Homo sapiens), P32245 [D126A], sequence (P32245 whole entry D126A, the tested form may be a part): as the sequence (P32245 whole entry E100A, the tested form may be a part) above, with A100E, D126A counted along it

[9] = test system: HEK293; test: Selectivity ratio of EC50 for agonist activity at N-terminal FLAG tagged MC4-R (unknown origin) transiently transfected in HEK293 cells to EC50 for agonist activity at N-terminal FLAG tagged MC1-R (unknown origin) transiently transfected in HEK293 cells; assay type: cell-based
[10] = molecular target: T2, Melanocortin receptor 4 (Homo sapiens, UniProt P32245); test: Antagonist activity at C-terminal HA-tagged human MC4-R stably expressed in HEK293 cells co-expressing GScAMP22P cAMP reporter assessed as inhibition of alpha-MSH induced cAMP production by cell based luminescence assay; assay type: functional; details: read-out: IC50
T2 sequence (P32245 whole entry): as the sequence (P32245 whole entry E100A, the tested form may be a part) above, with A100E counted along it

[11] = molecular target: Melanocortin receptor 3 (Homo sapiens, UniProt P41968); test: Antagonist activity at C-terminal HA-tagged human MC3-R stably expressed in HEK293 cells co-expressing GScAMP22P cAMP reporter assessed as inhibition of alpha-MSH induced cAMP production by cell based luminescence assay; assay type: functional
Melanocortin receptor 3, sequence (P41968 whole entry): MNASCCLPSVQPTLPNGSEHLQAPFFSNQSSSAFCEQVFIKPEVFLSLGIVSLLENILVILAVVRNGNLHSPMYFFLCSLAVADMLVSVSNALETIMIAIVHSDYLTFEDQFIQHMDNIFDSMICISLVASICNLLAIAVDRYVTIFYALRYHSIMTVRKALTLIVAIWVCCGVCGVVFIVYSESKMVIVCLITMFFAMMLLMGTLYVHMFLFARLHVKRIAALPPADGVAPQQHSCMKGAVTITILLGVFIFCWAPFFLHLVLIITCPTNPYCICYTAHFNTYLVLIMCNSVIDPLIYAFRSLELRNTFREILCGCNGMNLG

[12] = molecular target: T1, Melanocyte-stimulating hormone receptor; test: Partial agonist activity at C-terminal HA-tagged human MC1-R stably expressed in HEK293 cells co-expressing GScAMP22P cAMP reporter assessed as inhibition of alpha-MSH induced cAMP production by cell based luminescence assay; assay type: functional
Target sequence in this assay (Q01726 whole entry): as the sequence (Q01726 whole entry, looked up) above

[13] = test system: HEK293; test: Selectivity ratio of IC50 for C-terminal HA-tagged human MC1-R stably expressed in HEK293 cells co-expressing GScAMP22P cAMP reporter assessed as inhibition of alpha-MSH induced cAMP production to IC50 for C-terminal HA-tagged human MC4-R stably expressed in HEK293 cells co-expressing GScAMP22P cAMP reporter assessed as inhibition of alpha-MSH induced cAMP production; assay type: cell-based
[14] = molecular target: T2, Melanocortin receptor 4; details: HEK293, filed as antagonist, time 1.0 hrs
[15] = test system: T-REx-293; test: Inhibition of Kir7.1 […] mutant (unknown origin) expressed in human T-REx-293 cells co-expressing human MC4-R assessed as decrease in K+ conductance at 10 uM incubated for 24 hrs by high-throughput automated patch clamp analysis; assay type: cell-based
[16] = test system: Mus musculus; test: In vivo activation of Kir7.1 channel in cannulated C57BL/6J mouse assessed as increase in food intake at 500 pM,ICV administration and measured after 4 hrs; assay type: functional
[17] = test system: Mus musculus; test: In vivo activation of Kir7.1 channel in cannulated C57BL/6J mouse assessed as increase in food intake at 500 pM,ICV administration and measured upto 24 hrs; assay type: functional

Structure (SMILES): CCCCC(NC(C)=O)C(=O)N[C@H]1CC(=O)NCCCC[C@@H](C(N)=O)NC(=O)CNC(=O)[C@H](Cc2c[nH]c3ccccc23)NC(=O)[C@H](CCCNC(=N)N)NC(=O)[C@@H](Cc2ccc3ccccc3c2)NC(=O)[C@@H]2C[C@@H](n3cc(C(C)(C)N)nn3)CN2C1=O (stereo not given in full)
- inhibition [1]: 86.7%
- Ratio IC50 [2]: 0.4
- Ratio IC50 [3]: 16.7
- Activity [4]: Active
- Activity [5]: Active

Structure (SMILES): CC(=O)N[C@@H](CCCNC(=N)N)C(=O)N[C@H]1CSSC[C@@H](C(N)=O)NC(=O)[C@H](Cc2c[nH]c3ccccc23)NC(=O)[C@H](CCCNC(=N)N)NC(=O)[C@@H](Cc2ccccc2)NC(=O)[C@H](Cc2c[nH]cn2)NC(=O)[C@@H](C)NC1=O
- fold change (FC) [6]: 2
- fold change (FC) [7]: 2
- fold change (FC) [8]: 205
- Ratio EC50 [9]: 20

Structure (SMILES): CCCC[C@H](NC(C)=O)C(=O)N[C@H]1CC(=O)NCCCC[C@@H](C(N)=O)NC(=O)CNC(=O)[C@H](Cc2c[nH]c3ccccc23)NC(=O)[C@H](CCCNC(=N)N)NC(=O)[C@@H](Cc2ccc3ccccc3c2)NC(=O)[C@@H]2C[C@H](NC(=O)[C@@H](N)CCCN)CN2C1=O
- IC50 [10]: 2.97 nM
- IC50 ([11]; read-out: IC50): 8.96 nM
- IC50 [12]: 0.25 nM
- inhibition [1]: 85.1%
- Ratio IC50 [2]: 0.1
- Ratio IC50 [3]: 3
- Ratio IC50 [13]: 12

Structure (SMILES): CCCCCCc1cn([C@H]2C[C@H]3C(=O)N[C@H](Cc4ccc5ccccc5c4)C(=O)N[C@@H](CCCNC(=N)N)C(=O)N[C@@H](Cc4c[nH]c5ccccc45)C(=O)NCC(=O)N[C@H](C(N)=O)CCCCNC(=O)C[C@H](NC(=O)[C@H](CCCC)NC(C)=O)C(=O)N3C2)nn1
- IC50 [10]: 9.92 nM
- IC50 ([11]; read-out: IC50): 59.5 nM
- IC50 [12]: 68.9 nM
- inhibition [1]: 83.5%
- Ratio IC50 [2]: 7
- Ratio IC50 [3]: 6

Structure (SMILES): CCCC[C@H](NC(C)=O)C(=O)N[C@H]1CC(=O)NCCCC[C@@H](C(N)=O)NC(=O)CNC(=O)[C@H](Cc2c[nH]c3ccccc23)NC(=O)[C@H](CCCNC(=N)N)NC(=O)[C@@H](Cc2ccc3ccccc3c2)NC(=O)[C@@H]2C[C@H](n3cc(-c4ccccn4)nn3)CN2C1=O
- IC50 [10]: 6.78 nM
- IC50 ([11]; read-out: IC50): 31.5 nM
- IC50 [12]: 204 nM
- inhibition [1]: 87.2%
- Ratio IC50 [2]: 30.1
- Ratio IC50 [3]: 4.5

Structure (SMILES): CCCC[C@H](NC(C)=O)C(=O)N[C@H]1CC(=O)NCCCC[C@@H](C(N)=O)NC(=O)[C@@H](Cc2ccccc2)NC(=O)[C@H](CCCN=C(N)N)NC(=O)[C@@H](Cc2ccc3ccccc3c2)NC(=O)[C@@H]2CCCN2C1=O
- Tm [14]: 62.6 °C

Structure (SMILES): CCCC[C@H](NC(C)=O)C(=O)N[C@H]1CC(=O)NCCCC[C@@H](C(N)=O)NC(=O)CNC(=O)[C@H](Cc2c[nH]c3ccccc23)NC(=O)[C@H](CCCNC(=N)N)NC(=O)[C@@H](Cc2ccc3ccccc3c2)NC(=O)[C@@H]2C[C@H](n3cc(CCN)nn3)CN2C1=O
- IC50 [10]: 4.48 nM
- IC50 ([11]; read-out: IC50): 42.5 nM
- IC50 [12]: 1.71 nM
- inhibition [1]: 85.5%
- Ratio IC50 [2]: 0.4
- Ratio IC50 [3]: 9.5

Structure (SMILES): CCCC[C@H](NC(C)=O)C(=O)N[C@H]1CC(=O)NCCCC[C@@H](C(N)=O)NC(=O)[C@H](CCCNC(=N)N)NC(=O)[C@H](Cc2c[nH]c3ccccc23)NC(=O)[C@H](CCCNC(=N)N)NC(=O)[C@@H](Cc2ccc3ccccc3c2)NC(=O)[C@@H]2CCCN2C1=O
- IC50 [12]: 299 nM
- inhibition [1]: 86.8%
- inhibition [15]: Active

Structure (SMILES): CCCC[C@H](NC(C)=O)C(=O)N[C@H]1CC(=O)NCCCC[C@@H](C(N)=O)NC(=O)CNC(=O)[C@H](Cc2c[nH]c3ccccc23)NC(=O)[C@H](CCCNC(=N)N)NC(=O)[C@@H](Cc2ccc3ccccc3c2)NC(=O)[C@@H]2C[C@H](NC(=O)[C@@H](N)CCC(=O)O)CN2C1=O
- IC50 [10]: 2.83 nM
- IC50 ([11]; read-out: IC50): 5.64 nM
- IC50 [12]: 0.2 nM
- inhibition [1]: 80.7%
- Ratio IC50 [2]: 0.1
- Ratio IC50 [3]: 2
- Ratio IC50 [13]: 14

Structure (SMILES): CCCC[C@H](NC(C)=O)C(=O)N[C@H]1CC(=O)NCCCC[C@@H](C(N)=O)NC(=O)CNC(=O)[C@H](Cc2c[nH]c3ccccc23)NC(=O)[C@H](CCCNC(=N)N)NC(=O)[C@@H](Cc2ccc3ccccc3c2)NC(=O)[C@@H]2C[C@H](n3cc(CCC(=O)O)nn3)CN2C1=O
- IC50 [10]: 18.8 nM
- IC50 ([11]; read-out: IC50): 130 nM
- IC50 [12]: 389 nM
- inhibition [1]: 86.4%
- Ratio IC50 [2]: 20.8
- Ratio IC50 [3]: 6.9

Structure (SMILES): CCCC[C@H](NC(C)=O)C(=O)N[C@H]1CC(=O)NCCCC[C@@H](C(N)=O)NC(=O)CNC(=O)[C@H](Cc2c[nH]c3ccccc23)NC(=O)[C@H](CCCNC(=N)N)NC(=O)[C@@H](Cc2ccc3ccccc3c2)NC(=O)[C@@H]2C[C@H](n3cc(C(C)(C)N)nn3)CN2C1=O
- IC50 [10]: 5.01 nM
- IC50 ([11]; read-out: IC50): 34.3 nM
- IC50 [12]: 2.53 nM
- inhibition [1]: 83.8%
- Ratio IC50 [2]: 0.5
- Ratio IC50 [3]: 6.8
- Activity [16]: inactive
- Activity [17]: inactive

Structure (SMILES): CCCC[C@H](NC(C)=O)C(=O)N[C@H]1CC(=O)NCCCC[C@@H](C(N)=O)NC(=O)CNC(=O)[C@H](Cc2c[nH]c3ccccc23)NC(=O)[C@H](CCCN=C(N)N)NC(=O)[C@@H](Cc2ccc3ccccc3c2)NC(=O)[C@@H]2CCCN2C1=O
- IC50 ([11]; read-out: IC50): 5.08 nM
- IC50 ([11]; read-out: pIC50 (converted)): 5.5 nM
- IC50 [12]: 12 nM
- inhibition [1]: 89.2%
- inhibition [15]: Active

Structure (SMILES): CCCC[C@H](NC(C)=O)C(=O)N[C@H]1CC(=O)NCCCC[C@@H](C(N)=O)NC(=O)CNC(=O)[C@H](Cc2c[nH]c3ccccc23)NC(=O)[C@H](CCCNC(=N)N)NC(=O)[C@@H](Cc2ccc3ccccc3c2)NC(=O)[C@@H]2C[C@H](n3cc(-c4ccccc4)nn3)CN2C1=O
- IC50 [10]: 5.41 nM
- IC50 ([11]; read-out: IC50): 26.4 nM
- IC50 [12]: 53.6 nM
- inhibition [1]: 84.7%
- Ratio IC50 [2]: 9.9
- Ratio IC50 [3]: 4.9
